This is an account of results in ChEMBL document CHEMBL3758087, “7TM X-ray structures for class C GPCRs as new drug-discovery tools. 1. mGluR5” (Bioorg Med Chem Lett, 2016).

The target in assay [1] is T1, Metabotropic glutamate receptor 5 (Rattus norvegicus, UniProt P31424). Description: Antagonist activity at rat mGluR5 expressed in HEK293 cells assessed as inhibition of glutamate-induced calcium mobilization by Fluo-4 dye-based fluorescence assay. It is filed as functional, cell-based. Background: Calcium flux is commonly read through the fluorescence of an indicator in the cells.

In assay [2] the target is T1, Metabotropic glutamate receptor 5. Description: Displacement of [3H]methoxy-PEPgamma from mGluR5 in rat cerebral cortex membranes after 60 mins by scintillation counting analysis. It is filed as cell membranes, Membrane. On the technique in general: Displacement assays read how much labelled ligand stays bound in the presence of the test substance.
Assay [3] addresses T2, Metabotropic glutamate receptor 5 (Homo sapiens, UniProt P41594). As to the kind of experiment: Antagonist activity at human mGluR5 expressed in CHO cells assessed as inhibition of glutamate-induced effect by aequorin bioluminescence assay. It is filed as cell-based.
Assay [4] concerns the target T2, Metabotropic glutamate receptor 5. As to the kind of experiment: Antagonist activity at mGluR5 (unknown origin).
The target is the same in assay [5]. As to the kind of experiment: Antagonist activity at human mGluR5d by fluo-3-based FLIPR assay.

pIC50, pKi: −log10 of the molar value.

T2 sequence (P41594 whole entry): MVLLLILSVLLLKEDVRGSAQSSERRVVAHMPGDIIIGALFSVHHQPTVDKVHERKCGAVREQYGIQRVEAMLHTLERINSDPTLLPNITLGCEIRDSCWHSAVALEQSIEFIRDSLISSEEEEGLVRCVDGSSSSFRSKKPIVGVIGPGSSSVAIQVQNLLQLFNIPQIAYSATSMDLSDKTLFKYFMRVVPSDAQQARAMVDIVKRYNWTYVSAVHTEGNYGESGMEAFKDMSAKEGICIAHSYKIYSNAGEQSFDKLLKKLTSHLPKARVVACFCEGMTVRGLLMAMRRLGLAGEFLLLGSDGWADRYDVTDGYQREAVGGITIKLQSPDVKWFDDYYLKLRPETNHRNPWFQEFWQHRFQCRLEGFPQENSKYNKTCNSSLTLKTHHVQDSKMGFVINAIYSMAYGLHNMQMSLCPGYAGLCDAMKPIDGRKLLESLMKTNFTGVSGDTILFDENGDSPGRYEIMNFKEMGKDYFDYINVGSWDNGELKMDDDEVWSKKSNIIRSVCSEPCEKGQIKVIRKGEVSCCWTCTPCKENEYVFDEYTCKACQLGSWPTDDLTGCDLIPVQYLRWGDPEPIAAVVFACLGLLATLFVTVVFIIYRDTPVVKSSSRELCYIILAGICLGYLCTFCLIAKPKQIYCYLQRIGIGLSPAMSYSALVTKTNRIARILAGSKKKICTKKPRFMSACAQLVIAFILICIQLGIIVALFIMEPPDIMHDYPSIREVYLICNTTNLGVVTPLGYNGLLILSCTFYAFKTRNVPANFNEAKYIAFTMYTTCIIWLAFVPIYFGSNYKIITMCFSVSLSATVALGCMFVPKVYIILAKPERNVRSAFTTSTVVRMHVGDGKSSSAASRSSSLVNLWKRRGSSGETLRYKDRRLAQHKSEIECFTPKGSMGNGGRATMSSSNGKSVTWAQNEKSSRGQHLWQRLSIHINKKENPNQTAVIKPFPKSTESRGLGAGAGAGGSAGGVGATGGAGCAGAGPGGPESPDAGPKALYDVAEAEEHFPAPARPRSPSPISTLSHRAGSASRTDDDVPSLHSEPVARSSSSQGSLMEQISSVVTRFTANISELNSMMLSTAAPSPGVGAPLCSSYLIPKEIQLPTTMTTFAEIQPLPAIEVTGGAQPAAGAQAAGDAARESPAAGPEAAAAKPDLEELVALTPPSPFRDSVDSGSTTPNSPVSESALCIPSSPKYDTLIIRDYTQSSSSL
T1 sequence (P31424 whole entry): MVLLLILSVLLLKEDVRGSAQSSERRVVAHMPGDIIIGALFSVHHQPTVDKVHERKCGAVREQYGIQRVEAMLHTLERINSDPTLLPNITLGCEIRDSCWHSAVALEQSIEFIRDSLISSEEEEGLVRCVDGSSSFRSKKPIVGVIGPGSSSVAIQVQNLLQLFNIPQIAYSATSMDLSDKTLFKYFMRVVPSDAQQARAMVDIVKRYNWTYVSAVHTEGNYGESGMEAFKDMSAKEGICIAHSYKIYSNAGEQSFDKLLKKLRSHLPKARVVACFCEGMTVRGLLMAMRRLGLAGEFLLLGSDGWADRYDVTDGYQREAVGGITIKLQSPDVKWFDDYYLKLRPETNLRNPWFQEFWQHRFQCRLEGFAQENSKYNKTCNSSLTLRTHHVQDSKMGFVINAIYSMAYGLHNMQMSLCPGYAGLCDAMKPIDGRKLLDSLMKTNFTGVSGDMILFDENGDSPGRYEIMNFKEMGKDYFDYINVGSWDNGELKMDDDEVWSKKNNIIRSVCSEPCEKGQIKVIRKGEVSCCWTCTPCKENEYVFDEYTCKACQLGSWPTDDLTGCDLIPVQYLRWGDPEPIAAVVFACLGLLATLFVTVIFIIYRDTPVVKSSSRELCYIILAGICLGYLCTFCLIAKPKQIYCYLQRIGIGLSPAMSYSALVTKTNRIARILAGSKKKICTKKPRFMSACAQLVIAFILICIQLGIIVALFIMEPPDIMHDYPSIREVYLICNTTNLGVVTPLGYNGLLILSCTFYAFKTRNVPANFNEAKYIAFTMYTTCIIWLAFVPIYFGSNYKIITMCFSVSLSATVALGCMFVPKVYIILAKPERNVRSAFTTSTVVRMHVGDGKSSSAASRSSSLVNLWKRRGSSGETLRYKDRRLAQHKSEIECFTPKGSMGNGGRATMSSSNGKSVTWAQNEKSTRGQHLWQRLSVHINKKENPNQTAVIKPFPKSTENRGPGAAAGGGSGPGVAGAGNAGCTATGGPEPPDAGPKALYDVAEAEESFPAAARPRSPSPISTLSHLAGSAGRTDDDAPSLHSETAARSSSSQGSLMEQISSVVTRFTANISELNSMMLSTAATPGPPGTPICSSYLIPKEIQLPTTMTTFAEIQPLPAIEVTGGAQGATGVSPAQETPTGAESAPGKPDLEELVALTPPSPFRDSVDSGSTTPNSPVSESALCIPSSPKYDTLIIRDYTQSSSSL

With `N#Cc1cnc(Nc2nc3ccccc3o2)nc1-c1ccc(F)cc1`, in assay [1], the pIC50 was 7.04. Consider `Cc1cccc(C(=O)NC23CC4CC(C2)CC(NC(=O)c2cccc(C)n2)(C4)C3)n1`, for which the pKi in assay [2] is 8.17. With `O=C(Nc1ccnc(Cl)c1)c1nnn2c1CSc1c-2ccc(F)c1Cl`, in assay [3], the pIC50 is 9.10. Consider `N#Cc1nccnc1N1CCN2[C@@H](CC[C@@H]2c2nnn(-c3cccc(Cl)c3)n2)C1` (racemic), for which, in assay [4], the pIC50 was 8.00. `N#Cc1cccc(C#C[C@H]2CCC[C@H]3CN(c4ncccc4C#N)CCN32)c1` (racemic): in assay [5], the pIC50 is 7.70.

By pIC50 is commonly meant −log10 of the IC50, conventionally taken in molar units. For orientation: pKi means the negative decadic logarithm of the Ki, by convention in mol/L.
